According to patent US6440400B1, “Trimethylcylohexane derivatives and melanin-formation inhibitors and perfumeholding agents with the use of the same” (Takasago International Corporation, priority 1998, dated 2002):

Tests used:
B-16 melanoma cells = assay: Melanin production inhibiting effect on chromatophore (visual whiteness of cell pellets); assay type: cell-based; parameters: key: −: Equal to solvent control (black); +: Slightly different from solvent control (dark gray); ++: Markedly different from solvent control (pale gray); +++: No coloring of cells (white); settings: 3 days culture with sample
Description: A plastic culture flask (25 cm^2) was inoculated with 8×10^4 B-16 melanoma cells, which were incubated in a DMEN medium (Nippon Suisan Kaisha, Ltd.) containing 10% serum in the presence of 5% CO2 at 37° C. After 3 days, a test sample diluted with EtOH was added to the medium at a concentration of 0.4, 0.8, 1.6, 3.1 and 6.2 ppm and the culture was continued for further 3 days.
After completion of the culture to remove the culture followed by washing with a phosphate buffer (hereinafter referred to as PBS), the cells were removed from the flask using a medium containing trypsin and EDTA (ethylenediamine tetraacetic acid) and the cells were recovered from the cell suspension by centrifugation.
The cells thus obtained were washed once with PBS and then the pellets were evaluated visually for their whiteness.
Similarly to Example 16, the melanin production inhibiting effects of arbutin, tetrahydroionol, β-ionone, dihydro-β-ionone and the novel compounds of the invention (1′i, 1″i, 1^4′i) on a chromatophore were determined.

[1] = Patch test of 2% lanolin paste on upper arm of panelists; assay type: in vivo, human; settings: 2% by weight in lanolin paste, 24 h patch on upper arm, 30 panelists, observed at removal and 24 h later

Number of panelists exhibiting abnormality [1]	Number ot panelists exhibiting no abnormality [1]	SMILES	whiteness of cell pellets, evaluated visually (B-16 melanoma cells; 1.6 ppm)	whiteness of cell pellets, evaluated visually (B-16 melanoma cells; 3.1 ppm)	whiteness of cell pellets, evaluated visually (B-16 melanoma cells; 6.2 ppm)	whiteness of cell pellets, evaluated visually (B-16 melanoma cells; 0.4 ppm)	whiteness of cell pellets, evaluated visually (B-16 melanoma cells; 0.8 ppm)
		CCC(O)CCC1C(C)CCCC1(C)C (stereo not drawn) [1^4′b]	+	++	+++		
		CCCC(O)CCC1C(C)CCCC1(C)C (stereo not drawn) [1^4′c]	+	++	+++		
		CC(C)C(O)CCC1C(C)CCCC1(C)C (stereo not drawn) [1^4′e]	+	++	+++		
		CC(C)CC(O)CCC1C(C)CCCC1(C)C (stereo not drawn) [1^4′g]	++	+++	+++		
		CCC(=O)C=CC1C(C)CCCC1(C)C (stereo not drawn) [1′b]	+	++	+++		
		CCCC(=O)C=CC1C(C)CCCC1(C)C (stereo not drawn) [1′c]	+	++	+++		
		CC(C)CC(=O)C=CC1C(C)CCCC1(C)C (stereo not drawn) [1′g]	+	++	+++		
		CC1CCCC(C)(C)C1C=CC(=O)C(C)(C)C (stereo not drawn) [1′h]	+	++	+++		
		CCCCCC(=O)C(C)=CC1C(C)CCCC1(C)C (stereo not drawn) [1′x, 1-(2′,2′,6′-Trimethylcyclohexan-1′-yl)-2-methyloctan-1-en-3-one]	+	++	+++		
		CCC(O)C=CC1C(C)CCCC1(C)C (stereo not drawn) [1″b]	+	++	+++		
		CCCC(O)C=CC1C(C)CCCC1(C)C (stereo not drawn) [1″c]	++	+++	+++		
		CC(C)CC(O)C=CC1C(C)CCCC1(C)C (stereo not drawn) [1″g]	+++	+++	+++		
		CCC(O)C(C)=CC1C(C)CCCC1(C)C (stereo not drawn) [1″u]	+	++	+++		
		OC[C@H]1O[C@@H](Oc2ccc(O)cc2)[C@H](O)[C@@H](O)[C@@H]1O [ARBUTIN, arbutin, reference compound]	−	−	+	−	−
		CCCCCC(O)CCC1C(C)CCCC1(C)C (stereo not drawn) [Compound 1^4′i, 1-(2′,2′,6′-Trimethylcyclohexan-1′-yl)-octan-3-ol]	++	+++	+++	−	−
		CCCCCCCC(O)CCC1C(C)CCCC1(C)C (stereo not drawn) [Compound 1^4′m, 1-(2′,2′,6′-Trimethylcyclohexan-1′-yl)-decan-3-ol]	+	+	+		
0	30	CCCCCC(=O)C=CC1C(C)CCCC1(C)C (stereo not drawn) [Compound 1′i, 1-(2′,2′,6′-Trimethylcyclohexan-1′-yl)octan-1-en-3-one]	+++	+++	+++	−	+
		CC(C)CCCC(=O)C=CC1C(C)CCCC1(C)C (stereo not drawn) [Compound 1′k, 1-(2′,2′,6′-Trimethylcyclohexan-1′-yl)-7-methyloctan-1-en-3-one]	++	+++	+++		
		CC(C)=CCCC(=O)C=CC1C(C)CCCC1(C)C (stereo not drawn) [Compound 1′l, 1-(2′,2′,6′-Trimethylcyclohexan-1′-yl)-7-methyloctan-1,6-dien-3-one]	+	+++	+++		
		CCCCCCCC(=O)C=CC1C(C)CCCC1(C)C (stereo not drawn) [Compound 1′m, 1-(2′,2′,6′-Trimethylcyclohexan-1′-yl)-decan-1-en-3-one]	+	+	+++		
0	30	CCCCCC(O)C=CC1C(C)CCCC1(C)C (stereo not drawn) [Compound 1″i, 1-(2′,2′,6′-trimethylcyclohexan-1′-yl)octan-1-en-3-ol]	+++	+++	+++	−	+
		CC(C)CCCC(O)C=CC1C(C)CCCC1(C)C (stereo not drawn) [Compound 1″k, 1-(2′,2′,6′-Trimethylcyclohexan-1′-yl)-7-methyloctan-1-en-3-ol]	+++	+++	+++		
		CC(C)=CCCC(O)C=CC1C(C)CCCC1(C)C (stereo not drawn) [Compound 1″l, 1-(2′,2′,6′-Trimethylcyclohexan-1′-yl)-7-methyloctan-1,6-dien-3-ol]	+++	+++	+++		
		CCCCCCCC(O)C=CC1C(C)CCCC1(C)C (stereo not drawn) [Compound 1″m, 1-(2′,2′,6′-Trimethylcyclohexan-1′-yl)-decan-1-en-3-ol]	+	+	+++		
		CCCCCC(O)C(C)=CC1C(C)CCCC1(C)C (stereo not drawn) [Compound 1″x, 1-(2′,2′,6′-Trimethylcyclohexan-1′-yl)-2-methyloctan-1-en-3-ol]	+	++	+++		
		CC(=O)CCC1=C(C)CCCC1(C)C [Dihydro-β-ionone, dihydro-β-ionone, reference compound]	−	+	++	−	−
		CC(O)CCC1C(C)CCCC1(C)C (stereo not drawn) [Tetrahydroionol, tetrahydroionol, reference compound]	−	+	++	−	−
		CC(=O)/C=C/C1=C(C)CCCC1(C)C [β-Ionone, β-ionone, reference compound]	−	+	++	−	−
